Columns and labels:
[1] = system: pathogenic bacteria causing bacterial angular leaf spot in cucumbers; assay: In vitro bactericidal activity, bacterial angular leaf spot in cucumbers; type: cell-based, pseudomonas; conditions: read-out: inhibitory rate; for inhibition at 1 ppm: dosage 1 ppm; for inhibition at 5 ppm: dosage 5 ppm
[2] = system: pathogenic bacteria causing bacterial wilt in tobacco; assay: whole plant or invertebrate; type: cell-based, ralstonia; conditions: read-out: inhibitory rate
[3] = system: pathogenic bacteria causing black shank in potatoes; assay: In vitro bactericidal activity, black shank in potatoes; type: cell-based; conditions: read-out: inhibitory rate; for inhibition at 1 ppm: dosage 1 ppm; for inhibition at 5 ppm: dosage 5 ppm
[4] = system: pathogenic bacteria causing stem rot in sweet potatoes; assay: In vitro bactericidal activity, stem rot in sweet potatoes; type: cell-based, dikia; conditions: read-out: inhibitory rate; for inhibition at 1 ppm: dosage 1 ppm; for inhibition at 5 ppm: dosage 5 ppm
[5] = system: pathogenic bacteria causing bacterial blight in rice; assay: whole plant or invertebrate; type: cell-based, xanthomonas; conditions: read-out: inhibitory rate
[6] = system: pathogenic bacteria causing fruit blotch in watermelons; assay: In vitro bactericidal activity, fruit blotch in watermelons; type: cell-based, acidovorax; conditions: read-out: inhibitory rate; for inhibition at 1 ppm: dosage 1 ppm; for inhibition at 5 ppm: dosage 5 ppm
[7] = system: pathogenic bacteria causing black rot in Chinese cabbages; assay: In vitro bactericidal activity, black rot in Chinese cabbages; type: cell-based, xanthomonas; conditions: Xanthomonas, read-out: inhibitory rate; for inhibition at 1 ppm: dosage 1 ppm; for inhibition at 5 ppm: dosage 5 ppm
[8] = system: pathogenic bacteria causing bacterial wilt in cassava; assay: organism not typed; type: cell-based; conditions: read-out: inhibitory rate
[9] = system: pathogenic bacteria causing fire blight in pears; assay: In vitro bactericidal activity, fire blight in pears; type: cell-based, erwinia; conditions: Erwinia, read-out: inhibitory rate; for inhibition at 1 ppm: dosage 1 ppm; for inhibition at 5 ppm: dosage 5 ppm
[10] = system: black shank in potatoes; assay: Living crops in vivo protective activity, potatoes (root irrigation); conditions: Solanum tuberosum, read-out: efficacy against black shank in potatoes; for pest or weed control at 5 ppm: dosage 5 ppm; for pest or weed control at 10 ppm: dosage 10 ppm
Procedure: Root irrigation was carried out on the potatoes for tests according to the designed concentration of the agents. The dosage for each plant was 200 mL and was kept consistent (also for the control). The black shank bacteria were inoculated on the second day after the application. The results were investigated according to the disease condition.

[11] = system: indoor potted cucumber seedlings; assay: Effect of improving growth and development of crops; type: in vivo; set-up: Rate of growth rate increase (%): concentration or dose not given beside the values; conditions: versus blank control; for Rate of chlorophyll content increase (%) / Rate of leaf area increase (%): 14 days after application; for Rate of growth rate increase (%): plant height 14 days after application; for Rate of leaf area increase (%): second leaf
Method in brief: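 Pot-grown seedlings kept indoors; height plus second-leaf length (base to tip) and width (upper shoulder) taken pre-treatment and at day 14. Derived: growth-rate increase %, leaf area gain, SPAD chlorophyll gain.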

[12] = system: cucumber seedlings; assay: Safety for plant growth after application; type: in vivo; conditions: dosage 200 ppm
Method in brief: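 Potted cucumber seedlings grown indoors; read-outs: plant-height growth rate, chlorophyll content, leaf area.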

[13] = system: bacterial wilt in tobacco; assay: whole plant or invertebrate; conditions: Nicotiana tabacum, read-out: efficacy against bacterial wilt in tobacco
[14] = system: stem rot in sweet potatoes; assay: whole plant or invertebrate; conditions: read-out: efficacy against stem rot in sweet potatoes
[15] = system: bacterial blight in rice; assay: whole plant or invertebrate; conditions: Oryza sativa, read-out: efficacy against bacterial blight in rice
[16] = system: fruit blotch in watermelons; assay: whole plant or invertebrate; conditions: read-out: efficacy against fruit blotch in watermelons
[17] = system: soft rot in Chinese cabbages; assay: whole plant or invertebrate; conditions: 48 h, read-out: efficacy against soft rot in Chinese cabbages

| SMILES | inhibition at 1 ppm [1] [%] | inhibition at 5 ppm [1] [%] | inhibition at 1 ppm [2] [%] | inhibition at 5 ppm [2] [%] | inhibition at 1 ppm [3] [%] | inhibition at 5 ppm [3] [%] | inhibition at 1 ppm [4] [%] | inhibition at 5 ppm [4] [%] | inhibition at 1 ppm [5] [%] | inhibition at 5 ppm [5] [%] | inhibition at 1 ppm [6] [%] | inhibition at 5 ppm [6] [%] | inhibition at 1 ppm [7] [%] | inhibition at 5 ppm [7] [%] | inhibition at 1 ppm [8] [%] | inhibition at 5 ppm [8] [%] | inhibition at 1 ppm [9] [%] | inhibition at 5 ppm [9] [%] | pest or weed control at 5 ppm [10] [%] | pest or weed control at 10 ppm [10] [%] | further results |
| --- | --- | --- | --- | --- | --- | --- | --- | --- | --- | --- | --- | --- | --- | --- | --- | --- | --- | --- | --- | --- | --- |
| COCCOC(=O)c1cn(C2CC2)c2cc(SCC(F)(F)F)c(F)cc2c1=O [Compound 390] | ≥ 90 | ≥ 90 | ≥ 90 | ≥ 90 | ≥ 90 | ≥ 90 | ≥ 90 | ≥ 90 | ≥ 90 | ≥ 90 | ≥ 90 | ≥ 90 | ≥ 90 | ≥ 90 | ≥ 90 | ≥ 90 | ≥ 90 | ≥ 90 | ≥ 90 | ≥ 90 | Rate of chlorophyll content increase (%) [11]: 17%; Rate of growth rate increase (%) [11]: 13%; Rate of leaf area increase (%) [11]: 15%; safety for plant growth (discoloration, necrosis, wilt, malformation) [12]: safe for plant growth; pest or weed control at 5 ppm [13]: ≥ 90%; pest or weed control at 10 ppm [13]: ≥ 90%; pest or weed control at 5 ppm [14]: ≥ 90%; pest or weed control at 10 ppm [14]: ≥ 90%; pest or weed control at 5 ppm [15]: ≥ 90%; pest or weed control at 10 ppm [15]: ≥ 90%; pest or weed control at 5 ppm [16]: ≥ 90%; pest or weed control at 10 ppm [16]: ≥ 90%; pest or weed control at 5 ppm [17]: ≥ 90%; pest or weed control at 10 ppm [17]: ≥ 90% |
| CCSc1cc2c(cc1F)c(=O)c(C(=O)OCCOC)cn2C1CC1 [Compound 382] | ≥ 90 | ≥ 90 | ≥ 90 | ≥ 90 | ≥ 90 | ≥ 90 | ≥ 90 | ≥ 90 | ≥ 90 | ≥ 90 | ≥ 90 | ≥ 90 | ≥ 90 | ≥ 90 | ≥ 90 | ≥ 90 | ≥ 90 | ≥ 90 | ≥ 90 | ≥ 90 | Rate of chlorophyll content increase (%) [11]: 13%; Rate of growth rate increase (%) [11]: 10%; Rate of leaf area increase (%) [11]: 10%; safety for plant growth (discoloration, necrosis, wilt, malformation) [12]: safe for plant growth; pest or weed control at 5 ppm [13]: ≥ 90%; pest or weed control at 10 ppm [13]: ≥ 90%; pest or weed control at 5 ppm [14]: ≥ 90%; pest or weed control at 10 ppm [14]: ≥ 90%; pest or weed control at 5 ppm [15]: ≥ 90%; pest or weed control at 10 ppm [15]: ≥ 90%; pest or weed control at 5 ppm [16]: ≥ 90%; pest or weed control at 10 ppm [16]: ≥ 90%; pest or weed control at 5 ppm [17]: ≥ 90%; pest or weed control at 10 ppm [17]: ≥ 90% |
| COc1cc2c(cc1F)c(=O)c(C(=O)OCCO)cn2C1CC1 [Compound 264] | ≥ 90 | ≥ 90 | ≥ 90 | ≥ 90 | ≥ 90 | ≥ 90 | ≥ 90 | ≥ 90 | ≥ 90 | ≥ 90 | ≥ 90 | ≥ 90 | ≥ 90 | ≥ 90 | ≥ 90 | ≥ 90 | ≥ 90 | ≥ 90 | ≥ 90 | ≥ 90 | Rate of chlorophyll content increase (%) [11]: 12%; Rate of growth rate increase (%) [11]: 9%; Rate of leaf area increase (%) [11]: 11%; safety for plant growth (discoloration, necrosis, wilt, malformation) [12]: safe for plant growth; pest or weed control at 5 ppm [13]: ≥ 90%; pest or weed control at 10 ppm [13]: ≥ 90%; pest or weed control at 5 ppm [14]: ≥ 90%; pest or weed control at 10 ppm [14]: ≥ 90%; pest or weed control at 5 ppm [15]: ≥ 90%; pest or weed control at 10 ppm [15]: ≥ 90%; pest or weed control at 5 ppm [16]: ≥ 90%; pest or weed control at 10 ppm [16]: ≥ 90%; pest or weed control at 5 ppm [17]: ≥ 90%; pest or weed control at 10 ppm [17]: ≥ 90% |

Reference: patent US20250313533A1, “QUINOLINE CARBOXYLIC ACID ESTER COMPOUND AND PREPARATION METHOD AND USE THEREOF” (priority 2019, published 2025)
